Tests used:
BALB/c mice [1] = assay type: in vivo, mouse
Method: Various parameters relating to toxicity were assessed in BALB/c mice produced to develop B cell aplasia following administration of an immunotherapy involving anti-CD19 CAR T cells substantially as described in Example 2.
At 24, 48, and 72 hours after infusion with cell compositions, the three healthiest mice from each group were anesthetized, transcardially perfused with phosphate buffered saline (PBS) to flush brain blood vessels, and sacrificed. Blood and tissue samples (spleen, kidney, liver and brain) were collected for analysis of immune cell populations, gene expression, and blood chemistry. The blood and tissue samples were either processed for flow cytometry or were snap-frozen for RNA sequencing (RNA-Seq) analysis. For flow cytometry, tissue samples were digested and cell suspensions were layered over a density gradient to enrich immune cell populations.

BALB/c mice [2] = experiment: Serum chemistry profiles; settings: various time points following cell treatment
Method: The serum was stored at −20° C. prior to analysis for complete serum chemistry panels, including for levels of serum glucose, albumin, albumin to globulin (A/G) ratio, globulin, total protein, calcium, phosphorus, ALT, AST, and BUN enzymes.

BALB/c mice [3] = assay type: in vivo, mouse; remark: listed apart in the source
Method: (§1) A single dose of either 100 mg/kg or 250 mg/kg cyclophosphamide (CPA) was injected into naïve BALB/c mice (tumor-free) by intraperitoneal (i.p.) injection. Twenty-four hours later, about 5×10^6 mouse CAR-expressing T cells or mock (control) cells, generated as described in Example 1, were transferred into mice by intravenous injection into the lateral tail vein. As a control, mice were injected with CPA alone or were left untreated. Table E1 sets forth the treatment groups.
Blood samples were collected from treated mice at days 3, 10, 17, 31 and, in some mice at day 43, following cell infusion. The pharmacokinetics (PK) in the blood of administered cells was assessed by detection of the surrogate marker Thy 1.1. The number of circulating B cells, T cells and CD11b+ cells in the blood at the time points following treatment also was assessed.

A20 cells = experiment: Tumor burden by histology; assay type: in vivo, mouse; settings: mice having received A20 cells i.v.
Method: To examine the effects of tumor burden on the toxicity following B cell aplasia in mice, BALB/c mice were injected with CD19-expressing A20 cells prior to treatment with CPA and mouse anti-CD19 CAR−T cells. A20 cells are a cell line of B lymphocytes derived from a spontaneous reticulum cell neoplasm in a BALB/cAnN mouse. As the cell line was originally derived from cells of an individual of a BALB/c mouse substrain, the cells are syngenic to the BALB/c mice and can be administered into an immunocompetent BALB/c mouse without triggering an immune response.
BALB/c mice were injected intravenously with A20 cells. […] Table E3 sets forth the treatment groups.
Tumor burden also was assessed by histology in treated mice.

BALB/c mice [4] = experiment: Survival in mouse model of toxicity (CPA, then muCAR-T or mock cells); assay type: in vivo; settings: 250 mg/kg CPA alone i.p.; tumor-free BALB/c mice
Method: as §1

O=P1(N(CCCl)CCCl)NCCCO1 (centres unmarked) [CPA, cyclophosphamide]
circulating CD45+ live cells, CD11b+ cells, endogenous T cells and endogenous B cells in blood (BALB/c mice [1]; 250 mg/kg CPA pre-conditioning, continued to drop at least for 72 hours): depletion
immune cells in brain tissue, including endogenous T cells and endogenous B cells (BALB/c mice [1]; CPA pre-conditioning): depleted
immune cells (endogenous T cells, B cells, CD45+ cells, CD11b+ cells) in spleen, kidney and liver (BALB/c mice [1]; treatment with CPA): depletion
serum Albumin to Globulin ratio (A/G ratio) (BALB/c mice [2]): significantly reduced
levels of circulating B cells (BALB/c mice [3]; 250 mg/kg CPA than 100 mg/kg CPA): reduced levels of circulating B cells to a greater degree
circulating B cells, T cells, and CD11b+ cells (BALB/c mice [3]; 100 or 250 mg/kg CPA i.p., blood): depleted
A20 tumor masses in liver and spleen tissues (A20 cells): observed in some
Survival (BALB/c mice [4]): 100%
